From patent US10350334B2, “Catheter locking solution having antimicrobial and anticoagulation properties” (Becton, Dickinson and Company, priority 2009, dated 2019)
Values joined by “and” are separate entries in the source; they are usually repeats but may differ in a detail not shown here. Equal entries are not always repeated.

Experiments:
[1] = tested on: sheep plasma; test: Sheep's Plasma Clotting Assay (USP coagulation test); type: biochemical; settings: for Equivalence to Heparin: calculated from volumes giving 50% clotting versus heparin standard
Description: In order to understand what the working concentration range could be for the anesthetics tested, a Sheep's Plasma Clotting Assay was performed. This test is based on the United States Pharmacopeia (USP) standard test for coagulation and is often used to understand heparin potency. […] Sheep plasma was thawed in a water bath set to 37° C. To facilitate thawing, the plasma in the bottle was inverted every 15 minutes. The plasma was thawed after about 45-60 minutes. The thawed sheep plasma was filtered through glass wool or filtered into a clean glass beaker or flask, to remove particulate matter and to activate it. About 70-80 mL of filtered sheep plasma was collected. Next, a set of test tubes were prepared (VWR Disposable 13×100-mm) in a 6×12 rack. Ten test tubes were needed for each test solution including ten test tubes for the heparin standard. […] For each test solution, every (10) test tube received different volumes of 0.9% NaCl. […] Next, the local anesthetics were added, namely, tetracaine at 30 mg/mL, dibucaine at 30 mg/mL, and bupivacaine at 38 mg/mL. Each of the ten test tubes received different volumes of test solutions, starting with 280 μL and increasing in volume by 20 μL until reaching a volume of 460 μL at the tenth tube. The total volume of saline and test solutions in each of the tubes was 800 μL. A standard solution, namely, USP heparin sodium standard, was also prepared in the same way, with the starting concentration of heparin being 5.6 U/mL. Next, 1 mL of sheep plasma for heparin assay (Bio-Supplies, Inc, P-SPR-1500) was pipetted into each tube, and the rack was gently shaken to ensure mixing. Two hundred μL of a 1% CaCl2 solution was placed into each tube. The total volume for each tube is 2 mL. Each tube was capped with a VWR Plug-type cap, and contents of each tube were inverted six times to ensure that the entire inner wall of each tube was wet. Tubes were incubated for 1 hour at room temperature. After the 1 hour time period, the extent of clotting in each tube was determined by gently shaking each individual test tube (tapping the end gently is acceptable) and then tilting the tube to observe a clot both vertically and horizontally. The degree to which each tube developed a clot was recorded using the following criteria (per the USP Standard) for the visual inspection of the tubes: • 0% Clotting=No apparent clot formed. • 25% Clotting=Small observable clot with mostly liquid. Clot is very mobile. • 50% Clotting=Plasma is completely clotted but mobile. • 75% Clotting=Clot is not mobile but liquid is still present. • 100% Clotting=Clot is not mobile and no liquid is present.
Because of the testing protocol, starting concentrations of anesthetics were diluted from the original formulation. Calculations can be made to compare the efficacy of these anesthetics to the standard anticoagulant heparin by calculating the point at which both standard and test samples yield 50% clotting. Using this calculation, the anesthetic concentration can be referenced back to a measure of U/mL of heparin equivalence.

[2] = tested on: S. epidermidis; test: Minimum Biofilm Inhibitory Concentration (MBIC) test; type: cell-based, Staphylococcus epidermidis; settings: for MBIC: adhered cells, 24 hours incubation; for MBIC Assuming 2 mL lock volume: amount in 2 mL lock volume
Description: (§1) To further evaluate the efficacy of local anesthetics in antimicrobial lock solutions of the present invention, the minimum concentration at which these drugs can inhibit biofilm growth was tested. The local anesthetics identified in Table 4 were tested against three different species of bacteria identified in Table 3 to assess the antimicrobial efficacy against adhered microbes. It is known that adhered microbes, or biofilms, can be more resistant to antimicrobials than planktonic cells.
(§2) Experiments were conducted against adhered microbes as follows: first, a test tube containing 10 mL of sterile TSB was inocubated with BD BBL™ Qualiswab™, with the strain of interest. The tube was placed in an incubator at 37° C. overnight. The next day, a flask containing 25 mL of sterile TSB (or Sabouraud Dextrose Broth (SDB) for fungal species) was inoculated with 1 mL of bacterial suspension. The flask was placed in an incubator at 37° C. and shaken at 150 RPM. The next day a new flask containing 25 mL of TSB (or SDB) media was inoculated with 1 mL from the previous culture. The bacterial or fungal species were allowed to grow to log phase.
(§3) After the microbes entered the log phase, their concentration was checked to ensure that they had reached a minimum of 1×10^8 CFU/mL per a 0.5 MacFarland standard. Microbes were diluted to a concentration of 1×10^5 CFU/mL using a nephelometer and 200 μL of the microbial suspensions were plated on each of the wells of a 96 well plate. The plate was incubated in a standard incubator at 37° C. for 2 hours to allow for microbial cell adhesion. Next, dilutions of the desired concentrations of antimicrobials were prepared. In a separate, blank plate, 1:2 serial dilutions were prepared with the highest concentration of the antimicrobial to the left of the plate, decreasing in concentration towards the right of the plate. For example, 170 μL of the highest concentration of an antimicrobial was dispensed in column 1 (left of plate). Each of the rest of the columns received 170 μL of saline. Column 2 received 170 μL of antimicrobial, making for a 1:2 dilution (or 50% of original concentration). Contents of Column 2 were then transferred to 3, then from 3 to 4, and so forth. Each well was supplemented with 20% media (TSB for S. epidermidis and P. aeruginosa and SDB for C. albicans), thereby ensuring the viability of the cells over the test time period (24 hours). Positive control wells had 20% media in saline. The bacterial plate was removed from the incubator, and bacterial suspension discarded (adhered cells remain on plate). The antimicrobial formulations identified in Table 4 were then added to the bacterial plate and incubated in a standard incubator at 37° C. for 24 hours. After this time period, solutions in the plate were discarded and plates were rinsed with 200 μL of saline. The cells were then fixed with 200 μL of 95% ethanol for 30 minutes, and allowed to air dry for 10 minutes. Next, the cells were stained for 20 minutes with 250 μL of a filtered solution of 2% crystal violet dye. The plates were then rinsed three times with water, and the 2% crystal violet dye was solubilized with 300 μL of 95% ethanol. The plates were allowed to stand for 10 minutes to complete solubilization and then the plates were read on a spectrophotometer at 570 nm absorbance, wherein high absorbance readings of >0.600 indicated microbial growth. Columns in the plate that had no growth were recorded as the […] (MBIC). FIG. 2 illustrates the MBIC corresponding to the specific local anesthetics.

[3] = tested on: C. albicans; test: as above; type: cell-based, Candida albicans; settings: for MBIC: adhered cells, 24 hours incubation; for MBIC Assuming 2 mL lock volume: amount in 2 mL lock volume
Description: as §1, §2, §3

| Structure (SMILES) | coagulation ([1]; at all concentrations tested) [%] | MBIC [2] [mg/mL] | MBIC Assuming 2 mL lock volume [2] [mg] | MBIC [3] | MBIC Assuming 2 mL lock volume [3] | volume at 50% coagulation ([1]; Rep 1) [µL] | Equivalence to Heparin ([1]; per replicate, HCl) | Equivalence to Heparin ([1]; per replicate, listed as tetracaine, HCl) [U/mL] | 50% clotting range ([1]; final concentration in tube, 1 hour at room temperature, per replicate, HCl) | MBIC ([2]; HCl) [mg/mL] | MBIC ([2]; listed as tetracaine, HCl) [mg/mL] |
| --- | --- | --- | --- | --- | --- | --- | --- | --- | --- | --- | --- |
| CCCCN1CCCCC1C(=O)Nc1c(C)cccc1C.Cl (centres unmarked) [Bupivacaine, Bupivacaine HCl] | 75 | 8.12 | 16.24 | No inhibition | No inhibition | – | – | – | – | – | – |
| CCCCNc1ccc(C(=O)OCCN(C)C)cc1.Cl [Tetracaine, Tetracaine HCl] | – | – | 1.88 | 0.24 mg/mL | 0.48 mg | 350 | 6.06 U/mL and 6.24 U/mL (2×) | 6.25 | 5.4 mg/mL (2×) and 5.1-5.4 mg/mL | 0.94 | 0.9 |
